Results published in patent US20100197789A1, “ANTI-OBESITY AGENT AND USE THEREOF” (National University Corporation Nagoya University, priority 2006, published 2010).

Tests used:
Format in all cases: in vivo, mouse
NPY mRNA = experiment: In situ hybridization, NPY mRNA in hypothalamic arcuate nucleus, db/db mice; details: after 5 weeks, 1.1 and 2.7 mg/dl in drinking water, NIH image quantitation
Protocol: 5 week-old male C57BL/KsJ-db/db mice (db/db mice: body weight 19 to 25 g, Japan SLC, Inc.) were purchased and individually fed in tip cages. For the db/db mice, normal pellet diet (CE-2) was administered under free water intake and free food intake. A body weight and a food intake amount over 24 hours were measured every day from the start of feeding. On day 3 after the start of feeding, blood was taken from an orbit after 6 hour-fasting and a blood glucose level and a blood insulin concentration were measured. The db/db mice were divided into three groups (10 mice per each group) so that a body weight, a 24 hour-food intake amount, a blood glucose level, and a blood insulin concentration were equal, and defined to be a control group, a low concentration baclofen treated group, and a high concentration baclofen treated group. […] A food intake amount and a body weight were measured over time during the period of 5 week-administration of (±)-baclofen, blood was taken after the end of the 5-week administration, and the db/db mice were sacrificed by cervical luxation. […] The epididymal white adipose tissues and subcutaneous white adipose tissues were measured in weights, and then fixed in 4% formaldehyde and preserved at 4° C. […]

db/^+m mice = experiment: Rectal temperature, db/+m mice; details: (±)-baclofen 2.7 mg/dl in drinking water for 5 weeks
Protocol: 5 week-old male C57BL/KsJ-db/^+m mice (db/^+m mice: body weight 19 to 23 g, Japan SLC, Inc.) were purchased and individually fed in tip cages. To the db/^+m mice, normal pellet diet (CE-2) was administered under free water intake and free food intake. A body weight and a food intake amount over 24 hours were measured every day from the start of feeding. On day 3 after the start of feeding, blood was taken from an orbit after 6 hour-fasting and a blood glucose level and a blood insulin concentration were measured. The db/^+m mice were divided into two groups (10 mice per each group) so that a body weight, a 24 hour-food intake amount, a blood glucose level, and a blood insulin concentration were equal, and defined to be a control group and a baclofen treated group. […] A food intake amount and a body weight of the db/^+m mice were measured over time, and a rectal temperature was measured 5 weeks after the start of the administration. […]
R-baclofen and S-baclofen were administered to db/db/mice and (±)-baclofen was administered to db/^+m mice respectively for 5 weeks, and rectal temperatures were then continuously measured for 3 days at 20 o'clock immediately before the dark period when feed intake was started in the mice. […] That is, the rectal temperatures were measured by using a digital thermistor (manufactured by NATSUME SEISAKUSHO CO., LTD.).

DIO mice = experiment: White adipose tissue weights and fat cell size, DIO mice; details: (±)-baclofen 5 mg/kg/day oral 5 weeks
Protocol: (±)-baclofen (5 mg/kg/day) was orally administered to DIO mice for 5 weeks according to the above described method, and then, blood was taken from an orbit after 6 hour-fasting, and a plasma leptin concentration and a plasma adiponectin concentration were measured. The DIO mice were sacrificed by cervical luxation after the end of the 5-week administration, and then epididymal white adipose tissues and subcutaneous white adipose tissues were surgically removed, and after measuring the weights, they were fixed in 4% formaldehyde. The epididymal white adipose tissues were cut out to prepare a section with a thickness of 8 μm and subjected to Hematoxylin-Eosin stain (H-E stain) and a form (size) of a fat cell was examined by using an image analysis system, Neurolucida (MicroBrightField Japan, Inc.).

NCC(CC(=O)O)c1ccc(Cl)cc1 (racemic) [(±)-baclofen, (RS)-4-amino-3-(4-chlorophenyl)butanoic acid]
expression of NPY mRNA in the hypothalamic arcuate nucleus (NPY mRNA): significantly suppressed | rectal temperature (db/^+m mice): did not give a significant effect | weight of epididymal white adipose tissues (DIO mice): significantly decreased | weight of subcutaneous white adipose tissues (DIO mice): significantly decreased | size of a fat cell in the epididymal white adipose tissues (DIO mice; H-E stain): decreased
